How the values were obtained:
[1] = target: RNA-directed RNA polymerase (Hepacivirus hominis, UniProt O39930); assay: Inhibition of HCV NS5B RNA dependent RNA polymerase
Hepatitis C virus = assay: Inhibition of HCV replication; format: functional, organism-based, Hepacivirus hominis

Chain of RNA-directed RNA polymerase (O39930 whole entry): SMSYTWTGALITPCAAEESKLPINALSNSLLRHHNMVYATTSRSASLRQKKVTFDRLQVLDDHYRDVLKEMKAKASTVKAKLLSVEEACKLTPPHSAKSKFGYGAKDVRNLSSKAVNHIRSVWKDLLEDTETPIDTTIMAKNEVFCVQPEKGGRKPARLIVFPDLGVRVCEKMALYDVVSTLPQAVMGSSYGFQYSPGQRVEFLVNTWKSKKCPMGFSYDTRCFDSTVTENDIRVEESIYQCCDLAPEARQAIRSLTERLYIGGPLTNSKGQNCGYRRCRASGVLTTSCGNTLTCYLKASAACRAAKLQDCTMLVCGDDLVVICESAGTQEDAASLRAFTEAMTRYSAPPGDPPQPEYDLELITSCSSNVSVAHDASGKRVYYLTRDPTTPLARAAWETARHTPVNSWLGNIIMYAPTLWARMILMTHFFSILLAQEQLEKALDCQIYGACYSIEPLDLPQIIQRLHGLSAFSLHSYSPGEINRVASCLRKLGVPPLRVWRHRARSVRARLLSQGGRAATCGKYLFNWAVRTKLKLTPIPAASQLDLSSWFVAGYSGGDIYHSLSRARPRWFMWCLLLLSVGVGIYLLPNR

SMILES | IC50 [1] | IC50 (Hepatitis C virus)
CC(C)CCn1c(=O)c(C2=NS(=O)(=O)c3ccccc3N2)c(O)c2ccccc21 | 200 nM | 269000 nM
CC(C)(C)CCN1C(=O)C(C2=NS(=O)(=O)c3ccccc3N2)=C(O)[C@@H]1C1CCCCC1 | 486 nM | –
CC(C)(C)CCN1C(=O)C(C2=NS(=O)(=O)c3ccccc3N2)=C(O)[C@@H]1C(C)(C)C | 1.7 nM | –
CC(C)(C)[C@H]1C(O)=C(C2=NS(=O)(=O)c3ccccc3N2)C(=O)N1Cc1ccccc1 | 22 nM | 13000 nM
O=C1C(C2=NS(=O)(=O)c3ccccc3N2)=C(O)[C@H](Cc2cccnc2)N1Cc1ccc(F)cc1 | 2470 nM | –
CC(C)CCN1C(=O)C(C2=NS(=O)(=O)c3ccccc3N2)=C(O)[C@@H]1C(C)(C)C | 18 nM | 8000 nM
CCC(C)[C@H]1C(O)=C(C2=NS(=O)(=O)c3ccccc3N2)C(=O)N1Cc1ccccc1 (some centres undefined) | 88 nM | 37000 nM
CC(C)CCN1C(=O)C(C2=NS(=O)(=O)c3ccccc3N2)=C(O)[C@@H]1C(C)C | 147 nM | 159000 nM
CC(C)CCN1C(=O)C(C2=NS(=O)(=O)c3ccccc3N2)=C(O)[C@@H]1Cc1ccccc1 | 3570 nM | > 60000 nM
CC(C)(C)[C@H]1C(O)=C(C2=NS(=O)(=O)c3ccccc3N2)C(=O)N1Cc1ccc(F)cc1 | 59 nM | –
CC(C)(C)CCN1C(=O)C(C2=NS(=O)(=O)c3ccccc3N2)=C(O)[C@@H]1c1ccc(F)cc1 | > 748 nM | –
CC(C)(C)[C@H]1C(O)=C(C2=NS(=O)(=O)c3ccccc3N2)C(=O)N1CCC1CC1 | 530 nM | –
CC(C)(C)[C@H]1C(O)=C(C2=NS(=O)(=O)c3ccccc3N2)C(=O)N1Cc1ccccn1 | > 100000 nM | –
